The values that follow come from patent US7384629B2, “Biological control of nematodes with Hirsutella minnesotensis” (Regents of the University of Minnesota, priority 2000, dated 2008).

The test system of assay [1] is soybean cyst nematode. The assay can be described thus: 1998 field trial (Waseca): SCN population, fungal parasitism, soybean growth. Format: in vivo, Heterodera glycines. How it is done: (§1) A field experiment was conducted at one site in Waseca in 1998. Fungi used in this study included three species of egg-parasitic fungi, Verticillium chlamydosporium from Florida, ARF18 from Arkansas, and Cylindrocarpon destructans from Minnesota, and two species of juvenile-parasitic fungi, Hirsutella rhossiliensis and Hirsutella minnesotensis from Minnesota. The fungi were cultured on corn-grits, applied in furrow and mixed into soil. Additionally, aldicarb (nematicide) and lorsban (insecticide) were included for a comparison purpose. Plots applied with fungal culture medium, without addition of the culture medium, and plots with a resistant cultivar Pioneer 9234 were included as controls. Each plot consisted of two rows with row spacing of 30 inches and row length of 15 feet. The plots were separated by four rows without application of agents. Four replicates were used. Nematode egg density at planting, and egg density and juvenile density 2 months after planting and at harvest were determined. […] Levels of fungal parasitism of nematode eggs and juveniles were measured 2 months after planting and at harvest.

In assay [2] the test system is Heterodera glycines. It counts as in vivo. How it is done:
as §1
Other procedures applied in 2000 were the same as used in 1999.

SMILES strings stand for the structures.

Consider `CNC(=O)O/N=C/C(C)(C)SC` [Aldicarb, aldicarb], for which, in assay [1] (in vivo), the “% J2 parasitized, End season” value is listed as 4%; the “% J2 parasitized, Midseason” value was found to be 0%; the “Egg population, At planting, Eggs/100 cm^3 soil” value is 772 Eggs/100 cm^3 soil; the “Egg population, End season, % Reduction” value amounted to 64%. For the same compound, in assay [1] (in vivo), the “Egg population, End season, Eggs/100 cm^3 soil” value was 4,788 Eggs/100 cm^3 soil; the “Egg population, Midseason, % Reduction” value came out at 58%; the “Egg population, Midseason, Eggs/100 cm^3 soil” value is listed as 1,200 Eggs/100 cm^3 soil; the “Juvenile (J2) population, End season, % Reduction” value is reported as 66%. Moreover, in assay [1] (in vivo), the “Juvenile (J2) population, End season, J2/100 cm^3 soil” value was found to be 98; the “Juvenile (J2) population, Midseason, % Reduction” value was determined as 54%; the “Juvenile (J2) population, Midseason, J2/100 cm^3 soil” value amounted to 129; the “Plant growth: Emergence rate (%)” value was 88.4%. Further, in assay [1] (in vivo), the “Reproduction rate Pf/Pi” value amounted to 6.5, the “Reproduction rate Pf/Pm” value turned out to be 4.5 and the “Reproduction rate Pm/Pi” value was determined as 1.6. For the same compound, the “Plant growth: Yield (Bul/Acre)” value in assay [1] (soybean, 1998 field plots, 1200 g ai/acre) turned out to be 23.0 Bul/Acre. In assay [2] (in vivo), the “% J2 parasitizd, Midseason” value is 12.9a %; the “Eggs/100 cc soil, At harvest” value is reported as 13,975b Eggs/100 cc soil; the “Eggs/100 cc soil, Midseason” value is reported as 1,166bc Eggs/100 cc soil; the “J2/100 cc soil, Midseason” value is listed as 141bc. For the same compound, the “Yield bu/A” value in assay [2] (soybean, 2000 field plots, means of four replicates) is listed as 55.5a bu/A.
